Measured values from US6057371A, “Sigma receptor ligands and the use thereof” (Virginia Commonwealth University, priority 1992, dated 2000).
Where two headings read alike, the source gives them in different places.

Key:
5-HT1A receptor = molecular target: T1, 5-HT1A receptor (Rattus norvegicus, UniProt P19327); experiment: biochemical; type: binding; parameters: 47: 529-540 (1986); from tissue; host or cells: brain tissue, inferred from the cited method (rat frontal cortex)
T1 sequence (P19327 1-422): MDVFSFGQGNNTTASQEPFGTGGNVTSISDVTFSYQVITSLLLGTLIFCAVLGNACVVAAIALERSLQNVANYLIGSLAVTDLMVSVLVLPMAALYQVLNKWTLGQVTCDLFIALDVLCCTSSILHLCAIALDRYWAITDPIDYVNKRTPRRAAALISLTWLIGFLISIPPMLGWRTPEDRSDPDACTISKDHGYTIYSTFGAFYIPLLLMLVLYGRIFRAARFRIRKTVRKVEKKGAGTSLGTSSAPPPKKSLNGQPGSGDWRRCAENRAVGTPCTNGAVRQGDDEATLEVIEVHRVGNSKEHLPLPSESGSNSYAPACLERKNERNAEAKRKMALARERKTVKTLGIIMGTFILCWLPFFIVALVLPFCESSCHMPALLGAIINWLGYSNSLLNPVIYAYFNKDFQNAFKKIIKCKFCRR
Method: Further sigma receptor binding assays against [^3 H]DTG and 5HT-1A binding assays were conducted according to the procedure outlined in the previous examples.

sigma-1 binding site = molecular target: T2, sigma-1 binding site (Cavia porcellus, UniProt Q60492); experiment: biochemical; parameters: species or system guinea pig
T2 construct: Guinea pig whole membrane preparations (P2 microsomal fraction); from tissue; host or cells: guinea pig membranes (P2 microsomal fraction), as described by Weber et al; brain inferred from the sister test b489
T2 sequence (Q60492 whole entry): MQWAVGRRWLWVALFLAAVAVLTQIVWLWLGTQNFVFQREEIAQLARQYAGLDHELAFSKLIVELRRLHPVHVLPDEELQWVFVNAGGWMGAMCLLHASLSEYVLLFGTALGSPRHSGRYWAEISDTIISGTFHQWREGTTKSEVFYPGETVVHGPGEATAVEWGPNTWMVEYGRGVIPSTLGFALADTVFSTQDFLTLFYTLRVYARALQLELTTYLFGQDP
Method: [^3 H]DTG was purchased from DuPont/NEN.
The radioactivity on the filters was determined by scintillation spectrometry at an efficiency of about 50% using Cytoscint (ICN) scintillation fluid.

sigma-2 binding site [1] = molecular target: T3, sigma-2 binding site (Cavia porcellus, UniProt H0V073); experiment: biochemical; parameters: species or system guinea pig; conditions: for IC50: Table 17, read-out: IC50 (nM) at sigma-2
T3 construct: Guinea pig whole membrane preparations (P2 microsomal fraction); from tissue; host or cells: guinea pig membranes (P2 microsomal fraction), as described by Weber et al; brain inferred from the sister test b489
T3 sequence (H0V073 1-176): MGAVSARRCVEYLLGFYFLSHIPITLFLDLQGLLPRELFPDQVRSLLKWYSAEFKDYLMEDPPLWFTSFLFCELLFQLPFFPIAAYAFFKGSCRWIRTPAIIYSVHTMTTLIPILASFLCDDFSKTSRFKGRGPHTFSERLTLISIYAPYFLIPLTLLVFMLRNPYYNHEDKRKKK
Method: (§4) For the standard equilibrium assay, the mixtures were incubated for 30 min. at room temperature, then filtered and the radioactivity determined as described above.

PCP receptor = PCP receptor binding, ^3 H-MK-801; parameters: species or system rat; conditions: Table 4
Method: PCP receptor binding assays against ^3 H-MK-801 were conducted as described by Keana et al., Proc. Natl. Acad. Sci (USA) 86: 5631-5635 (1989); Keana et al., Life Sciences 43: 965-973 (1988). For (+) ^3 H-MK-801 binding, 1 nM of radioligand was incubated with about 100 ug of thawed rat brain membrane protein for 4 hr at room temperature. The assays were carried out in 5 mM Tris/acetate and were stopped by rapid filtration through Whatman GF/B or Schleicher & Schuell no. 32 glass fiber filters (presoaked in 0.05% polyethylenamine).

Dopamine D1 receptor = molecular target: T4, Dopamine D1 receptor (Rattus norvegicus, UniProt P18901); experiment: Dopamine D1 receptor binding, [^3 H]SCH-23390, striatal membranes; conditions: Table 4
T4 construct: Rat striatal membranes were prepared from frozen tissue; from tissue; host or cells: rat striatum, frozen tissue
T4 sequence (P18901 whole entry): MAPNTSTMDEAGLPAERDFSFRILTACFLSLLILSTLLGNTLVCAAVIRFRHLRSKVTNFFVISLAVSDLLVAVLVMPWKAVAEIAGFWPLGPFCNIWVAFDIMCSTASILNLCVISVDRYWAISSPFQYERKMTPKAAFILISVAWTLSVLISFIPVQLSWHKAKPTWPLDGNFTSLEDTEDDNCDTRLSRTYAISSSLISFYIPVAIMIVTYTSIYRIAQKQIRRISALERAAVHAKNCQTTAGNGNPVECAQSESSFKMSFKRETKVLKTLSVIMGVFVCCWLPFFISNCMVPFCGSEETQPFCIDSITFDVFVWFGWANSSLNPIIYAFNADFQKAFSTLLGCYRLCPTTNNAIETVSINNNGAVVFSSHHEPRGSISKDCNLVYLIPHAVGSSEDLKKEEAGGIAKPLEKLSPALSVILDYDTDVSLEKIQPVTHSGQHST
Method: (§1) Dopamine D1 and D2 receptor binding assays were performed as described by Billard et al., Life Sci. 35: 1885-1893 (1984) using [^3 H]SCH-23390 for the D1 receptors and [^3 H]domperidone for the D2 receptors (Baudry et al., Arch. Pharmacol. 308: 231-237 (1979).
(§2) Rat striatal membranes were prepared from frozen tissue by Poltron homogenization in 25 volumes of ice cold Tris-EDTA buffer (50 mM Tris-HCl, 1 mM EDTA, pH 7.4 at 4° C.). The homogenate was centrifuged at 48,000× g for 10 min. at 4° C., and the pellet was resuspended in 25 volumes of the same buffer. This suspension was then incubated at 37° C. for 15 min., followed by recentrifugation as before. The resulting pellet was resuspended in 267 volumes of assay buffer (50 mM Tris-HCl, 120 mM NaCl, 5 mM KCl, 2 mM CaCl2, 1 mM MgCl2, pH 7.4 at 37° C.).
(§3) The binding assays were conducted with 100 uL of [^3 H]SCH-23390 or [^3 H]domperidone (to give about 1 nM final), 100 uL of buffer or drug solution, and 800 uL of membrane suspension (to give about 250 ug of striatal membrane protein per assay). The tubes were incubated at 37° C. for 60 min. The assays were stopped by rapid filtration over Schleicher & Schuell #32 or Whatman GF/B glass fiber filters (presoaked in 0.5% polyethyleneimine for [^3 H]domperidone binding), followed by two 3 mL washes of ice cold buffer using a Brandel cell harvester. After vigorous shaking, the filter disks were counted at 52% efficiency in 5 mL of Cytoscint (ICN).

sigma receptor = experiment: Sigma receptor binding, [^3 H]DTG, brain membranes (both sigma-1 and sigma-2 sites); parameters: species or system guinea pig; conditions: Table 6; [^3 H]DTG
sigma-2 binding site [2] = experiment: biochemical; parameters: species or system guinea pig
Method: as §4

Dopamine D2 receptor = molecular target: T5, Dopamine D2 receptor (Rattus norvegicus, UniProt P61169); experiment: Dopamine D2 receptor binding, [^3 H]domperidone, striatal membranes; conditions: Table 4
T5 construct: Rat striatal membranes were prepared from frozen tissue; from tissue; host or cells: rat striatum, frozen tissue
T5 sequence (P61169 whole entry): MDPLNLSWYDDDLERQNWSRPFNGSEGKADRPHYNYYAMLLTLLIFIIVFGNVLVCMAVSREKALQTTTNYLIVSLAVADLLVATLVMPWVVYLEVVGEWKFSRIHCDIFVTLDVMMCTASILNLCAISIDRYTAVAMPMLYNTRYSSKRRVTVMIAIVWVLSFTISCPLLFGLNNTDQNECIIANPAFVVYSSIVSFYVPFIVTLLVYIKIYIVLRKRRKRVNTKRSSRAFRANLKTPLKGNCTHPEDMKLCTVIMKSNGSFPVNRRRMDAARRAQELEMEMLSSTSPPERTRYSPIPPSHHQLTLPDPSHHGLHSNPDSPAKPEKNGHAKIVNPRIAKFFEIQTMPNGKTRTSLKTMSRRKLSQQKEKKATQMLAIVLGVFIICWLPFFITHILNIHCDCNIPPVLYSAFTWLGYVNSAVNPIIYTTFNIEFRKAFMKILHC
Method: as §1, §2, §3

[3] = Table 10, read-out: SIGMA-1 KI vs. 3H-PENTAZOCINE MEAN
[4] = Table 10, read-out: SIGMA-2 KI vs. 3H-DTG + PENTAZOCINE MEAN
[5] = Table 12, read-out: IC50 (nM) at sigma-1

Row | SMILES | Ratio 5-HT1A /σ (5-HT1A receptor) | S1/S2 Ratio (sigma-1 binding site; guinea pig, microsomes) | IC50 (PCP receptor) | Ratio 5-HT1A /σ (5-HT1A receptor; Table 5) | IC50 (5-HT1A receptor; Table 5, read-out: 5-HT1A IC50) | Ki (sigma-1 binding site; [3]) | S1/S2 Ratio (sigma-1 binding site; Table 10, sigma-1/sigma-2) | Ki (sigma-2 binding site [1]; [4]) | IC50 (sigma-2 binding site [1]) | IC50 (Dopamine D1 receptor) | also measured
1 | C[C@@H](Cc1ccccc1)NCCCCCc1ccccc1 [Compound 45, N-(5-phenylpentyl)-1-phenyl-2-propylamine] | 100 | .048 | > 10000 nM |  |  |  |  |  |  |  | IC50 (5-HT1A receptor): 594 nM; IC50 (sigma-1 binding site): 0.88 nM; change in sigma-1 affinity vs. compound No. 1, words (sigma-1 binding site): substantially increases affinity; Ki (sigma-1 binding site; SIGMA-1 KI vs. 3H-P[…]): 0.88 nM; Ki (sigma-2 binding site [1]; SIGMA-2 KI vs. 3H-DTG + P[…]): 18.5 nM
2 | CCCC(N)Cc1ccccc1 (racemic) [Compound 34, (±) 1-Phenyl-2-aminopentane] |  |  | > 10000 nM | 2.6 | 6650 nM | 1180 nM | 0.115 | 10300 nM |  |  | 
3 | C[C@@H](Cc1ccccc1)NCCCCc1ccccc1 [Compound 44, N-(4-phenylbutyl)-1-phenyl-2-propylamine] | 40 | .543 | > 10000 nM |  |  |  |  |  |  |  | IC50 (5-HT1A receptor): 278 nM; Ki (sigma-1 binding site; SIGMA-1 KI vs. 3H-P[…]): 19.4 nM; Ki (sigma-2 binding site [1]; SIGMA-2 KI vs. 3H-DTG + P[…]): 35.8 nM
4 | CC(Cc1ccccc1)NCCCCc1ccccc1 (racemic) [Compound 10, (±) N-(1-phenyl-2-propyl)-4-phenylbutylamine] |  |  | > 10000 nM | 22 | 212 nM | 4.68 nM | 0.088 | 53.2 nM |  |  | change in sigma-1 affinity vs. compound No. 1, words (sigma-1 binding site; Example 8): doubles affinity; IC50 (sigma-1 binding site; Table 14, read-out: IC50 (nM) at sigma-1): 4.7 nM; IC50 ratio of sigma-1/sigma-2 (sigma-1 selective compounds) (sigma-1 binding site; less than about 0.1, see Table 10): less than 0.1
5 | CC(Cc1ccc(I)cc1)NCCCc1ccccc1 (racemic) [Compound 22, (±) N-[1-(4'-Iodophenyl)-2-propyl]-3-phenylpropylamine] | 13 | 0.232 | > 10000 nM |  | 202 nM | 17.7 nM |  | 76 nM | 76 nM | > 10000 nM | IC50 (sigma-1 binding site; [5]): 17.7 nM
6 | O=C1c2ccccc2C(=O)N1CCCN1CCN(c2ccccc2)CC1 [Compound 96, N-phenyl-N'-(3-(1-phthalimido)propyl)piperazine] |  |  |  |  |  | 3100 nM |  | 149 nM |  |  | IC50 (sigma receptor): 141 nM; sigma-1/sigma-2 ratio (sigma-2 binding site [2]; Example 9): 87; ratio of sigma-1/sigma-2 (sigma-2 selective compounds) (sigma-2 binding site [2]; greater than about 10, see Table 10): greater than 10
7 | CC(Cc1cccc(Br)c1)NCCCc1ccccc1 (racemic) [Compound 20, (±) N-[1-(3'-Bromophenyl)-2-propyl]-3-phenylpropylamine] |  |  | > 10000 nM | 17 | 108 nM | 9.65 nM | 0.369 | 26.1 nM | 26 nM |  | IC50 (sigma-1 binding site; [5]): 9.6 nM
8 | C[C@H](Cc1ccccc1)NCCCc1ccccc1 [Compound 1, R(-)N-(1-phenyl-2-propyl)-3-phenylpropylamine] |  |  | > 10000 nM |  | 115 nM |  |  | 60.8 nM | 60 nM | > 10000 nM | Ki (sigma-2 binding site [1]; Example 9, read-out: sigma-2 binding affinity): 60 nM; IC50 (Dopamine D2 receptor): 4650 ± 430 nM
9 | c1ccc(N2CCN(CCCc3ccc4ccccc4c3)CC2)cc1 [Compound 51] |  |  | > 10000 nM |  |  |  |  |  |  | 2990 ± 40 nM | IC50 (Dopamine D2 receptor): 158 ± 28 nM
